# Test results as given in patent US20040029908A1, “Tricyclo compounds, a process for their production and a pharmaceutical composition containing the same” (FUJISAWA PHARMACEUTICAL CO., LTD., priority 1984, published 2004).
# What was measured:
# DTH to MBSA in BDF1 mice = assay: Delayed Type Hypersensitivity (DTH) Response to methylated bovine serum albumin (MBSA); assay type: in vivo, mouse
# Protocol: Female BDF1 mice were used for this test. The mice were sensitized with a subcutaneous injection of 0.1 ml emulsion consisting of equal volume of MBSA (2 mg/ml) and Freund's incomplete adjuvant(FIA). Seven days later, a 0.05 ml challenge dose of 0.4 mq/ml MIBSA in saline was injected into the plantar region of the right hind foot and 0.05 ml saline into the left hind foot to act as a control. Twenty four hours after challenge, both hind feet were measured with a dial gauge and the mean challenge in footpad thickness was measured. The FR-900506 substance was injected for 8 days orally, starting from the sensitization.
# [1] = tested on: Aspergillus fumigatus IFO 5840; assay: Antimicrobial activity, serial agar dilution method in Sabouraud agar; assay type: cell-based; conditions: IFO5840, 30° C., 24 hours
# Protocol: (§1) Antimicrobial activities of the tricyclo compounds (I) against various fungi were determined by a serial agar dilution method in a Sabouraud agar. Minimum inhibitory concentrations (MIC) were expressed in terms of μg/ml after incubation at 30° C. for 24 hours.
# Fusarium oxysporum = assay: as above; assay type: cell-based; conditions: 30° C., 24 hours
# Protocol: as §1
# [2] = tested on: Contact-Delayed Hypersensitivity in ICR mice; assay: Contact-Delayed Hypersensitivity in mice (picryl chloride); assay type: in vivo, mouse
# Protocol: Female ICR mice were used for this test. A tenth of a 7% (w/v) solution of picryl chloride in ethanol prepared at the time of the experiment was applied to the ventral surface of previously shaved animals. Such a sensitization was performed twice at intervals of 7 days. Seven days later, the thickness of the ears were measured with an ordinary engineer's micrometer and a 1% (w/v) solution of picryl chloride in olive oil was painted to both surfaces of each ear. The inflammation was evaluated 24 hours later by measuring the both of ears. The results were expressed as the average increase in thickness of the ears measured in units of 10 ^−3cm. The FR-900506 substance was injected for 14 days orally, starting from the first sensitization.
# [3] = tested on: interleukin 3 and interferones; assay: Lymphokine production in the supernatant of MLR; assay type: cell-based, mouse; conditions: especially y-interferone
# Protocol: The mixed lymphocyte reaction (MILR) was performed in microtiter plates, with each well containing 5 ×10^5 C57BL/6 responder cells (H-2^b), 5 ×10^5 mitomycin C treated (25 μg/ml mitomycin C at 37° C. for 30 minutes and washed three times pith RPMI 1640 medium) BALB/C stimulator cells ([…]) in 0.2 ml RPMI 1640 medium supplemented with 10% fetal calf serum, 2mM sodium hydrogen carbonate, penicillin 20 (50 unites/ml) and streptomycin (50 μg/ml) . The cells were incubated at 37° C. in humidified atmosphere of 5% carbon dioxide and 95% of air for 48 hours and the supernatant was collected. The FR-900506 substance was dissolved in ethanol and further diluted in RPMI 1640 medium and added to the cultures to give final concentrations of 0.1 μg/ml or less.
# [4] = tested on: Local Graft-versus-Host Reaction in BDF1 mice; assay: Local Graft-versus-Host Reaction (GvHR) in Mice; assay type: in vivo; conditions: Mus musculus, po; orally for five days; weight difference right and left popliteal lymph nodes, day 7; read-out: ED50 for prevention of the local graft-versus-host reaction
# Protocol: The viable spleen cells ([…] cells) from C57BL/6 donors were injected subcutaneously into the right hind foot pad of BDF1 mice to induce local GvHR. The mice were killed 7 days later and both right (injected paw) and left (uninjected paw) popliteal lymph nodes (PLN) were weighed. The GVHR was expressed as the weight difference between right and left PLN. The FR-900506 substance was dissolved in olive oil and administered orally for five days starting on the same day as sensitization.
# [5] = Solubility (physical and chemical properties); assay type: physicochemical
# [6] = tested on: Plaque Forming Cell (PFC) Response in C3H/He mice; assay: in vivo Plaque Forming Cell (PFC) Response in Mice; set-up: species or system mouse
# Protocol: Male C3H/He mice 6 to 7 weeks of age were used for this 1 test. The mice were immunized on day 0 with 0.2 ml of 1 ×10^8 washed sheep erythrocytes intravenously. Spleens were removed on day 4 and spleen cells were incubated in the presence of SRBC as described by Cunningham and Szenberg (1968). Tests were evaluated by enumeration of direct generated plaque forming cells in the presence of complement. Suspensions of spleen cells were counted with a Microcellcounter CC-130 (Sysmex, Japan) and PFC results were calculated as PFC/10^6 recovered cells. The FR-900506 substance was administered orally for 4 days starting from the immunization.
# ddY mice = assay: Acute toxicities in ddY mice by intraperitoneal injection; assay type: in vivo; conditions: ddY mice, intraperitoneal injection
# [7] = tested on: Experimental Allergic Encephalomyelytis in SJL/J Mice; assay: Experimental Allergic Encephalomyelitis (EAE) in SJL/J Mice; assay type: in vivo, mouse
# [8] = tested on: mouse MLR (C57BL/6 responder cells, mitomycin C treated BALB/C stimulator cells); assay: Suppression of in vitro Mixed Lymphocyte Reaction (MLR), 3H-thymidine uptake; assay type: cell-based
# Protocol: The MLR test was performed in microtiter plates, with each well containing 5 ×10^5 C57BL/6 responder cells (H-2^b ), 5 ×10^5 mitomycin C treated (25μg/ml mitomycin C at 37° C. for 30 minutes and washed three times with RPMI 1640 medium) BALB/C stimulator cells (H-2^d) in 0.2 ml RPMI 1640 medium supplemented with 10% fetal calf serum, 2mM sodium hydrogen carbonate, penicillin (50 unit/ml) and streptomycin (50 μg/ml) . The cells were incubated at 37 ° C. in humidified atmosphere of 5% carbon dioxide and 95% of air for 68 hours and pulsed with ^3H-thymidine (0.5 μCi) 4 hours before the cells were collected. The object compound of this invention was dissolved in ethanol and further diluted in RPMI 1640 medium and added to the cultures to give final concentrations of 0.1 μg/ml or less.
smiles,measurement,setting,value
"C=CCC1/C=C(\C)CC(C)CC(OC)C2OC(O)(C(=O)C(=O)N3CCCCC3C(=O)OC(/C(C)=C/C3CCC(O)C(OC)C3)C(C)C(O)CC1=O)C(C)CC2OC (stereo not shown) [FR-900506, 17-Allyl-1,14-dihydroxy-12-[2-(4-hydroxy-3-methoxycyclohexyl)-1-methyvinyl]-23-25-dimethoxy-13,19,21,27-tetramethyl-11,28-dioxa-4-azatricyclo[22.3.1.0^4,9]octacos-18-ene-2,3,10,16-tetraone]",Footpad Swelling,DTH to MBSA in BDF1 mice; 10 mg/kg orally for 8 days,31.0 ± 4.4 × 10^−3 cm
same,Footpad Swelling,DTH to MBSA in BDF1 mice; 32 mg/kg orally for 8 days,20.8 ± 4.4 × 10^−3 cm
same,Footpad Swelling,DTH to MBSA in BDF1 mice; 100 mg/kg orally for 8 days,7.8 ± 1.6 × 10^−3 cm
same,ED50,"DTH to MBSA in BDF1 mice; Mus musculus, po, 192 h, orally for 8 days starting from the sensitization",18.4 mg/kg
same,MIC,[1],0.025 µg/mL
same,MIC,Fusarium oxysporum,0.05 µg/mL
same,Increase of ears at 24 hours after challenge,[2]; 32 mg/kg orally for 14 days,6.4 ± 1.6 × 10^−3 cm
same,Increase of ears at 24 hours after challenge,[2]; 100 mg/kg orally for 14 days,2.2 ± 1.5 × 10^−3 cm
same,Lymphokine production (in words),[3],inhibited lymphokine production such as interleukin 3 and interferones
same,ED50,[4],19 mg/kg
same,Solubility,"[5]; hexane (n-hexane), petroleum ether",Sparingly Soluble
same,Solubility,"[5]; methanol, ethanol, acetone, ethyl acetate, chloroform, diethyl ether and benzene",Soluble
same,Solubility,[5]; water,Insoluble
same,PFC/10^6 cells,[6]; 3.2 mg/kg orally for 4 days,3618 ± 476 PFC/10^6 cells
same,PFC/10^6 cells,[6]; 10 mg/kg orally for 4 days,1382 ± 243 PFC/10^6 cells
same,PFC/10^6 cells,[6]; 32 mg/kg orally for 4 days,657 ± 41 PFC/10^6 cells
same,PFC/10^6 cells,[6]; 100 mg/kg orally for 4 days,278 ± 41 PFC/10^6 cells
same,ED50,"[6]; Mus musculus, po, 96 h, orally for 4 days starting from the immunization",5.9 mg/kg
same,the dead at dose of 100 mg/kg,ddY mice,could not be observed
same,Number of Animals with Disease at Day 24,[7]; 32 mg/kg orally for 19 days starting on day 0,0/5
same,Development of clinical signs of EAE (in words),[7]; orally for 19 days starting on day 0,clearly prevented the development of clinical signs of EAE
same,Radioactivities (mean C.P.M. ± S.E.),[8]; 0.078 ng/ml,7189 ± 365 C.P.M.
same,Suppression (%),[8]; 0.078 ng/ml,27.6%
same,Radioactivities (mean C.P.M. ± S.E.),[8]; 0.156 ng/ml,5490 ± 431 C.P.M.
same,Suppression (%),[8]; 0.156 ng/ml,44.7%
same,Radioactivities (mean C.P.M. ± S.E.),[8]; 0.313 ng/ml,3880 ± 222 C.P.M.
same,Suppression (%),[8]; 0.313 ng/ml,60.9%
same,Radioactivities (mean C.P.M. ± S.E.),[8]; 0.625 ng/ml,614 ± 57 C.P.M.
same,Suppression (%),[8]; 0.625 ng/ml,93.8%
same,Radioactivities (mean C.P.M. ± S.E.),[8]; 1.25 ng/ml,168 ± 23 C.P.M.
same,Suppression (%),[8]; 1.25 ng/ml,98.3%
same,Radioactivities (mean C.P.M. ± S.E.),[8]; 2.5 ng/ml,54 ± 4 C.P.M.
same,Suppression (%),[8]; 2.5 ng/ml,99.5%
same,IC50,"[8]; Lymphocyte, mouse MLR, 68 hours, 3H-thymidine",0.00026 µg/mL
